Laboratory results: US12269816B2, “Benzothiophene compound, preparation method therefor and use thereof” (SICHUAN KELUN-BIOTECH BIOPHARMACEUTICAL CO., LTD., priority 2019, dated 2025)

What was measured:
[1] = test system: STING pathway cytokine mIFN-β in mouse Raw264.7 cells; experiment: ELISA of STING pathway cytokine mIFN-β expression in mouse Raw264.7 cells; format: cell-based; conditions: 6 h, ELISA; for Emax: highest expression of mIFN-β; for EC50: mIFN-β expression
Text: In this experiment, the expression of STING signal pathway cytokine mIFN-β was detected in Raw264.7 cells (Nanjing Cobioer) by the ELISA method, so as to evaluate the agonistic effect of the compound to be tested on the expression of STING pathway cytokine mIFN-β at the cellular level.
Raw264.7 cells (Nanjing Cobioer) in the logarithmic phase were centrifuged, and resuspended in a cell culture solution to a density of 1.6×10^6 cells/ml. The cell suspension was inoculated into a 24-well cell culture plate (Corning) at 250 μL/well. The mother liquor of the compound to be tested was gradiently diluted with a cell culture solution to obtain a 2× working concentration diluted solution (control compound 1 was diluted at a 3-fold gradient: 200, 66.67, 22.22, 7.41, 2.47, 0.82, 0.27 and 0 μM; control compound 2 was diluted at a 2-fold gradient: 200, 100, 50, 25, 12.5, 6.25, 3.125 and 0 μM; and compounds 4, 6 and 8 were diluted at a 4-fold gradient: 200, 50, 12.5, 3.13, 0.78, 0.20, 0.049 and 0 μM). The 2× working concentration diluted solution of the compound was added into a 24-well plate (250 μl of the culture solution containing 2% DMSO was added into the negative control well) at 250 μL/well. The culture plate was then placed in a cell incubator, and incubated for 6 h. After the cell incubation, the supernatant was collected by centrifugation at 300 g×5 min, and the mIFN-β content (pg/ml) in the cell culture supernatant was detected according to the operating instructions of the VeriKinem Mouse IFN Beta ELISA Kit from PBL (obtained by conversion of the OD450 nm absorbance-mIFN-β standard concentration standard curve and the OD450 nm absorbance value read by the microplate reader). EC50 was calculated through log(agonist) vs. response—Variable slope fitting by the Graphpad Prism software, and the experimental results are shown in Table 3.
In the table, EC50 refers to the concentration of a compound when the expression of mIFN-β generated by stimulation of the compound reaches half of Emax; and Emax refers to the highest expression of mIFN-β generated by stimulation of the compound.

[2] = target: T1, hSTING protein (Homo sapiens, UniProt Q86WV6); experiment: Human STING binding kit (HTRF) competitive binding assay
T1 construct: purchased Cisbio
Text: In this experiment, the capability of the compound and the specific ligand (d2-STING-ligand) in a Human STING binding kit from Cisbio for competitively binding to the 6×His-hSTING protein was detected using the Human STING binding kit (HTRF method), so as to evaluate the binding affinity between the compound to be tested and the hSTING protein.
The compound was gradiently diluted with a dilution buffer in the Human STING binding kit (the diluent buffer reagent) to obtain a 4× working concentration diluted solution. […] The 6×His-hSTING protein (50× in the mother liquor) was diluted to 1× with the detection buffer in the Human STING binding kit (the detection buffer reagent). 5 μl of the diluted solution was added into the corresponding wells of a 384-well plate, and the well with no protein and no compound was set as a negative control well (min), while the well with the protein and no compound was set as a positive control well (max). The d2-STING-ligand and Tb^3+-anti-6×His-antibody (both 50× in the mother liquor) were diluted to 1× with the detection buffer in the Human STING binding kit (the detection buffer reagent), and mixed uniformly at a ratio of 1:1. 10 μl of the mixed solution was added to the corresponding wells of a 384-well plate. The plate was sealed and incubated at room temperature (25° C.) for 3 h. A BMG microplate reader was used to read HTRF, and the ratio was calculated according to the following formula: Ratio=signal665nm/signal620nm×10000. […] IC50 was calculated through log(inhibitor) vs. response—Variable slope fitting by the Graphpad Prism software.

[3] = test system: STING pathway cytokine hIFN-β in human THP-1 cells; experiment: ELISA of STING pathway cytokine hIFN-β expression in human THP-1 cells; format: cell-based; conditions: 8 hours, ELISA; for EC50: hIFN-β expression; for Emax: highest expression of hIFN-β
Text: In this experiment, the expression of STING signal pathway cytokine hIFN-β was detected in THP1 cells (Nanjing Cobioer) by the ELISA method, so as to evaluate the agonistic effect of the compounds to be tested on the expression of STING pathway cytokine hIFN-β at the cellular level.
THP1 cells (Nanjing Cobioer) in the logarithmic phase were centrifuged, and resuspended in a cell culture solution to a density of 8×10^6 cells/ml. The cell suspension was inoculated into a 24-well cell culture plate (Corning) at 250 μL/well.
The mother liquor of the compound to be tested was diluted with a cell culture solution to obtain a 2× working concentration diluted solution (control compounds 1 and 2 were diluted at a 2-fold gradient: 200, 100, 50, 25, 12.5, 6.25, 3.125, 1.5625 and 0 μM; and compounds 4, 6, and 8 were diluted at a 3-fold gradient: 200, 66.67, 22.22, 7.41, 2.47, 0.82, 0.27, 0.091 and 0 μM). The 2× working concentration diluted solution of the compound was added into 24-well plate (250 μl of the culture solution containing 2% DMSO was added into the negative control well) at 250 μL/well. The culture plate was placed in a cell culture incubator, and incubated for 8 hours. After the cell incubation, the supernatant was collected by centrifugation at 300 g×5 min, and the hIFN-β content (pg/ml) in the cell culture supernatant was detected according to the operating instructions of the VeriKine Human […] ELISA kit from PBL (obtained by conversion of the […] absorbance-hIFN-β standard concentration standard curve and the OD450 nm absorbance value read by the microplate reader). […] was calculated through log(agonist) vs. response—Variable slope fitting by the Graphpad Prism software, and the experimental results are shown in Table 2.
In the table, EC50 refers to the concentration of a compound when the expression of hIFN-β generated by stimulation of the compound reaches half of Emax and Emax refers to the highest expression of hIFN-β generated by stimulation of the compound.

[4] = test system: STING-mediated interferon (IFN) signal reporter gene in THP1-Blue™ ISG cells; experiment: STING-mediated interferon (IFN) signal SEAP reporter gene assay in THP1-Blue ISG cells; format: cell-based, human; conditions: for EC50: 16 h incubation, SEAP reporter read at OD620nm; for Emax (OD620nm): highest OD620nm value generated by stimulation of the compound, 16 h; for agonistic effect on the STING-mediated Interferon (IFN) signal pathway: result in words
Text: In this experiment, the activity of the SEAP (secreted embryonic alkaline phosphatase) reporter gene regulated by the IFN regulatory factor (interferon regulatory factor) was detected in the THP1-Blue™ ISG cells (InvivoGen) to evaluate the agonistic effect of the compounds to be tested on the STING-mediated IFN signal pathway at the cellular level.
The THP1-Blue™ ISG cells (InvivoGen) in the logarithmic phase were centrifuged, and resuspended in a cell culture solution to a density of 2×10^6 cells/ml. The cell suspension was inoculated in a 96-well cell culture plate (Corning) at 50 μL/well. The mother liquor of the compound to be tested was gradiently diluted with a cell culture solution to obtain a 2× working concentration diluted solution (control compounds 1 and 2 were diluted at a 3-fold gradient: 200, 66.67, 22.22, 7.41, 2.47, 0.82, 0.27 and 0 μM; compounds 1, 2, 4, 6, 8, and 23 were diluted at a 8-fold gradient: 60, 7.5, 0.94, 0.12, 0.015, 0.0018, 0.00023 and 0 μM; and compounds 3 and 5 were diluted at a 10-fold gradient: 10, 1, 0.1, 0.01, 0.001, 0.0001, 0.00001 and 0 μM). The 2× working concentration diluted solution of the compound was added into a 96-well plate (50 μl of the culture solution containing 2% DMSO was added into the negative control well) at 50 μL/well. The culture plate was then placed in a cell incubator, and incubated for 16 h. After the cell incubation, 10 μL of the cell culture supernatant was transferred to a 96-well plate, and a QUANTI-Blue (InvivoGen) solution was added at 90 μL/well. The cells were incubated at 37° C. for 3 h. The absorbance at 620 nm (OD620nm) was read with a microplate reader.
In the table, EC50 refers to the concentration of a compound when ODM620nm value generated by stimulation of the compound reaches half of Emax; and Emax refers to the highest OD620nm value generated by stimulation of the compound.

[5] = test system: STING and its downstream proteins TBK1 and IRF3 in THP-1 cells; experiment: Western blotting of phosphorylation of STING signal pathway proteins in human THP-1 cells; format: cell-based; conditions: 3 hours, protein blotting, FIGS. 1-5, result in words
Text: In this experiment, the changes in the phosphorylation levels of STING and its downstream proteins TBK1 (TANK-binding kinase 1) and IRF3 (interferon regulatory factor 3) were detected by protein blotting to evaluate the agonistic effect of the test compounds on the STING signal pathway at the cellular level.
The THP-1 cells in the logarithmic phase were centrifuged, and resuspended in a cell culture solution to a density of […]. The cell suspension was inoculated into a 12-well cell culture plate (Corning) at 0.5 mL/well. The compound to be tested was diluted with a cell culture solution to 2× working solution concentration (control compounds 1 and 2: 60 μM; compounds 1 and 3: 0.6 μM, 6 μM, and 60 μM; compounds 2, 4, 6 and 8: 6 μM, 20 μM, and 60 μM). 0.5 mL of the diluted solution of the compound was added into a 12-well plate (500 μl of the culture solution containing 2% DMSO was added into the negative control well), and the plate was incubated in a cell incubator for 3 hours. After the incubation, the cells were collected by centrifugation, lysed with 60 μL cell lysis buffer (CST) for 30 minutes, and centrifuged at 12,000 rpm for 15 minutes. The supernatant was collected to determine the protein concentration, and then an appropriate amount of 5× protein loading buffer was added. The mixture was heated at 95° C. for 10 minutes to prepare a protein electrophoresis sample. Finally protein blotting was performed to detect the phosphorylation level of the corresponding protein. The primary antibodies used in the protein blotting were purchased from CST: STING (D2P2F) rabbit mAb, Phospho-STING (Ser366) rabbit mAb, Phospho-IRF3 (Ser396) (D601M) rabbit mAb, IRF3 (D83B9) rabbit mAb, TBK1/NAK (D1B4) rabbit mAb, Phospho-TBK1/NAK (Ser172) (D52C2) XP® rabbit mAb, and GAPDH (D16H11) rabbit mAb; and the secondary antibody horseradish peroxidase-conjugated goat anti-rabbit IgG (H+L) was purchased from Zsgb-bio.

T1 sequence (Q86WV6 whole entry H232R): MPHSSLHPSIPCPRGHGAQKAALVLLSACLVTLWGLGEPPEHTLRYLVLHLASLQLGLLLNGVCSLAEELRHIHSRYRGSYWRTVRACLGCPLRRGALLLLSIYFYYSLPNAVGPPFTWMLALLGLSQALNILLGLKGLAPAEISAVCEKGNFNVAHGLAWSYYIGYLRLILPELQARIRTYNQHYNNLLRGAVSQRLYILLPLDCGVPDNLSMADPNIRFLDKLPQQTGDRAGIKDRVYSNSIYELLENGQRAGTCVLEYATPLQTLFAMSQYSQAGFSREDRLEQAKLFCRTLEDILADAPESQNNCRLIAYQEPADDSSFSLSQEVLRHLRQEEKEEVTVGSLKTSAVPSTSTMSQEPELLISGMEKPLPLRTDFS

COc1cc2cc(C(=O)CCC(=O)O)sc2cc1OC [Control Compound 2, reference compound]
Emax [1]: 1106.15 pg/mL | EC50 [1]: 24.6 µM | Ki ([2]; calculated as Ki=1/2*IC50 per kit instructions): 1890 nM | IC50 ([2]; competition with d2-STING-ligand for 6×His-hSTING, HTRF, 3 h at 25° C.): 3.78 µM | EC50 [3]: 16.8 µM | Emax [3]: 1373.9 pg/mL | EC50 ([4]; Homo sapiens): 4950 nM | Emax (OD620nm) [4]: 1.49 OD620nm

CCOC(=O)CCC(=O)c1cc2cc(OC)c(OCCCOc3cc4cc(C(=O)N(C)CCC(=O)OCC)sc4cc3OC)cc2s1 [Compound 3]
agonistic effect on the phosphorylation levels of STING, TBK1 and IRF3 [5]: strong agonistic effects | EC50 [4]: 3.58 nM | Emax (OD620nm) [4]: 1.92 OD620nm | agonistic effect on the STING-mediated Interferon (IFN) signal pathway [4]: strong agonistic effects

CCOC(=O)CCC(=O)c1cc2cc(OCCCOc3cc4sc(C(=O)N(C)CCC(=O)OCC)cc4cc3OC)c(OC)cc2s1 [Compound 5, ethyl 4-(5-(3-((2-((3-ethoxy-3-oxopropyl)(methyl)carbamoyl)-5-methoxybenzo[b]thiophen-6-yl)oxy)propoxy)-6-methoxybenzo[b]thiophen-2-yl)-4-oxobutyrate]
EC50 ([4]; Homo sapiens): 1.4 nM | Emax (OD620nm) [4]: 1.94 OD620nm | agonistic effect on the STING-mediated Interferon (IFN) signal pathway [4]: strong agonistic effects

CCOC(=O)CCC(=O)c1cc2cc(OCCCOc3cc4cc(C(=O)N(C)CCCOC)sc4cc3OC)c(OC)cc2s1 [Compound 23, ethyl 4-(6-methoxy-5-(3-((6-methoxy-2-((3-methoxypropyl)(methyl)carbamoyl)benzo[b]thiophen-5-yl)oxy)propoxy)benzo[b]thiophen-2-yl)-4-oxobutyrate]
EC50 ([4]; Homo sapiens): 974 nM | Emax (OD620nm) [4]: 1.74 OD620nm | agonistic effect on the STING-mediated Interferon (IFN) signal pathway [4]: strong agonistic effects

Nc1ncnc2c1ncn2[C@@H]1O[C@@H]2COP(=O)([S-])O[C@@H]3[C@H](O)[C@@H](COP([O-])(=S)O[C@H]2[C@H]1O)O[C@H]3n1cnc2c(N)ncnc21.[Na+].[Na+] (stereo partly drawn) [Control Compound 1, ADU-S100, reference compound]
Emax [1]: 1248.94 pg/mL | EC50 [1]: 2.74 µM | EC50 [3]: 14 µM | Emax [3]: 1476.6 pg/mL | EC50 [4]: 3880 nM | Emax (OD620nm) [4]: 2.03 OD620nm
